Experimental data reported in US10144746B2 (GLOBAL BLOOD THERAPEUTICS, INC., priority 2015, dated 2018).
Where a name gives a salt, the structure may show the parent alone.

These compounds were tested against Human plasma kallikrein (Homo sapiens (Human), UniProt P03952) (assay: In vitro plasma kallikrein inhibition assay (chromogenic substrate D-Pro-Phe-Arg-pNa, absorbance at 405 nm, IC50 determination)). Settings: not given.
Assay type: biochemical

Human plasma kallikrein, sequence (P03952 391-638): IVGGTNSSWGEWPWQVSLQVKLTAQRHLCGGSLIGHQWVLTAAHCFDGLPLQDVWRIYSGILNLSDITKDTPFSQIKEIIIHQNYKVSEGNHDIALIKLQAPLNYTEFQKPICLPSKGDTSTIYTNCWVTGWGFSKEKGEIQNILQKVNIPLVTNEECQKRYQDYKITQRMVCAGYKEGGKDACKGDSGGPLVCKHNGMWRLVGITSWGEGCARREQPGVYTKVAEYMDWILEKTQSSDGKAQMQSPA
Human plasma kallikrein, sequence (P03952 20-390 partner): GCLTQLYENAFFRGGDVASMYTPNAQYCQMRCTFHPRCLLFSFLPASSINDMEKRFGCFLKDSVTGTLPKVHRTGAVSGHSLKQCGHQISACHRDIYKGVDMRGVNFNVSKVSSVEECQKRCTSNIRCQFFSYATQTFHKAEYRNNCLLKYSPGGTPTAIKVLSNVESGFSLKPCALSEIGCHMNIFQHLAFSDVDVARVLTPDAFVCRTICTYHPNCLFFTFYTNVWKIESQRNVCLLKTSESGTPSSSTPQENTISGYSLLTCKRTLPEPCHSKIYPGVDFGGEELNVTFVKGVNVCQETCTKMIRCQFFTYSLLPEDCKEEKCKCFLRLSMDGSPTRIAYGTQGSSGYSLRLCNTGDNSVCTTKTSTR

| Compound | KLKB1 pIC50 |
| --- | --- |
| (±)-N-[(4-carbamimidoylphenyl) methyl]-12-(4- fluorophenyl)-8-methyl-15- oxatetracyclo- [6.6.1.0^2,^7.0^9,1^4]pentadeca- 2,4,6,9,11,13-hexaene-4- carboxamide [Example 346] | 7.26 |
| (±)-N4-[(6-amino-2,4- dimethylpyridin-3-yl)methyl]- 11-cyano-15-oxatetracyclo- [6.6.1.0^2,^7.0^9,1^4]pentadeca- 2,4,6,9,11,13-hexaene-4,12- dicarboxamide and (±)-N4-[(6- amino-2,4-dimethylpyridin-3- yl)methyl]-12-cyano-15- oxatetracyclo[6.6.1.0^2,^7.0^9,1^4] pentadeca-2,4,6,9,11,13- hexaene-4,11-dicarboxamide [Example 333] | 5.64 |
| Cc1cc(N)nc(C)c1CNC(=O)c1ccc2c(c1)C1OC2c2c(C)cc(-c3ccc(F)cc3)cc21 (racemic) [Example 340, (±)-N-[(6-amino-2,4-dimethyl-pyridin-3-yl)methyl]-12-(4-fluorophenyl)-10-methyl-15-oxatetracyclo[6.6.1.0^2,^7.0^9,1^4] pentadeca-2,4,6,9(14),10,12-hexaene-4-carboxamide and (±)-N-[(6-amino-2,4-dimethylpyridin-3-yl)methyl]-11-(4-fluorophenyl)-13-methyl-15-oxatetracyclo [6.6.1.0^2,^7.0^9,1^4]pentadeca-2,4,6,9(14),10,12-hexaene-4-carboxamide] | 6.64 |
| COc1cc(N)nc(C)c1CNC(=O)c1ccc2c(c1)C1OC2c2ccc(-c3ccc(F)cc3F)cc21 (stereo not shown) [Example 80] | 7.57 |
| COc1cc(N)nc(C)c1CNC(=O)c1ccc2c(c1)C1OC2c2ccc(-c3ccc(Cl)c(F)c3F)cc21 (stereo not shown) [Example 109, trifluoroacetate salt] | 7.59 |
| Cc1c(CNC(=O)c2ccc3c(c2)C2OC3c3ccc(-c4cccc(F)c4F)cc32)c(F)cc2c1CNC2 (stereo not shown) | 5 |
| (±)-N-[(6-amino-2,4- dimethylpyridin-3-yl)methyl]- 12-(4-fluorophenyl)-1,8- dimethyl-15- oxatetracyclo[6.6.1.0^2,^7.0^9,1^4] pentadeca-2,4,6,9,11,13- hexaene-4-carboxamide and (±)-N-[(6-amino-2,4- dimethylpyridin-3-yl)methyl]- 11-(4-fluorophenyl)-1,8- dimethyl-15-oxatetracyclo [6.6.1.0^2,^7.0^9,1^4]pentadeca- 2,4,6,9,11,13-hexaene-4- carboxamide [Example 339] | 4 |

Same assay, conditions: read-out: KLKB1 pIC50 (converted)

| Compound | IC50 |
| --- | --- |
| N=C(N)c1ccc(CNC(=O)c2ccc3c(c2)[C@@H]2O[C@H]3c3ccc(C4CC4)cc32)cc1 (single isomer, unassigned) [Example 259] | 2 nM |
| N=C(N)c1ccc(CNC(=O)c2ccc3c(c2)[C@@H]2O[C@H]3c3ccc(N4CCCC4)cc32)cc1 (single isomer, unassigned) [Example 236] | 2 nM |
| Cc1cc(N)nc(C)c1CNC(=O)c1ccc2c(c1)[C@@H]1O[C@H]2c2ccc(C(=O)N(C)c3ccccc3)cc21 (single isomer, unassigned) [Example 194] | 1660 nM |
| Cc1cc(N)nc(C)c1CNC(=O)c1ccc2c(c1)C1OC2c2ccc(Oc3cccnc3)cc21 (racemic) [Example 144, (±)-N-[(6-amino-2,4-dimethylpyridin-3-yl)methyl]-12-(pyridin-3-yloxy)-15-oxatetracyclo[6.6.1.0^2,^7.0^9,1^4] pentadeca-2,4,6,9,11,13-hexaene-4-carboxamide] | 6310 nM |
| C#Cc1ccccc1-c1ccc2c(c1)C1OC2c2ccc(C(=O)NCc3c(C)cc(N)nc3C)cc21 (racemic) [Example 126, (±)-N-[(6-amino-2,4-dimethylpyridin-3-yl)-methyl]-12-(2-ethynylphenyl)-15-oxatetra-cyclo[6.6.1.0^2,^7.0^9,1^4]pentadeca-2,4,6,9,11,13-hexaene-4-carboxamide] | 6310 nM |
| Cc1cc(N)nc(C)c1CNC(=O)c1ccc2c(c1)[C@@H]1O[C@H]2c2ccc(C(=O)c3ccccc3)cc21 (single isomer, unassigned) [Example 220] | 12 nM |
| COc1ccc(-c2ccc3c(c2)[C@H]2O[C@@H]3c3ccc(C(=O)NCc4c(C)cc(N)nc4C)cc32)c(F)n1 (single isomer, unassigned) [Example 177] | 117 nM |
| Cc1cnn(Cc2ccc3c(c2)C2OC3c3ccc(C(=O)NCc4c(F)cc5c(c4C)CNC5)cc32)c1 (racemic) [Example 153, (±)-N-[(6-fluoro-4-methyl-2,3-dihydro-1H-isoindol-5-yl)methyl]-12-[(4-methyl-1H-pyrazol-1-yl)methyl]-15-oxatetracyclo[6.6.1.0^2,^7.0^9,1^4]-pentadeca-2,4,6,9,11,13-hexaene-4-carboxamide] | 204 nM |
| N=C(N)c1ccc(NC(=O)c2ccc3c(c2)[C@@H]2O[C@H]3c3ccc(-c4ccc(F)cc4F)cc32)cc1 (single isomer, unassigned) [Example 244] | 10700 nM |
| Cc1nc(N)cc(C2=CCOCC2)c1CNC(=O)c1ccc2c(c1)[C@@H]1O[C@H]2c2ccc(-c3ccc(F)cc3F)cc21 (single isomer, unassigned) [Example 222] | 28.2 nM |
| Nc1nccc2c(CNC(=O)c3ccc4c(c3)C3OC4c4ccc(-c5ccc(F)cc5F)cc43)cccc12 (racemic) [Example 148, (±)-N-[(1-aminoisoquinolin-5-yl)methyl]-12-(2,4-difluorophenyl)-15-oxatetracyclo [6.6.1.0^2,^7.0^9,1^4]-pentadeca-2,4,6,9,11,13-hexaene-4-carboxamide] | 85.1 nM |
| Cc1c(CNC(=O)c2ccc3c(c2)C2OC3c3ccc(Cn4cccn4)cc32)c(F)cc2c1CNC2 (racemic) [Example 160, (±)-N-[(6-fluoro-4-methyl-2,3-dihydro-1H-isoindol-5-yl)methyl]-12-[(1H-pyrazol-1-yl)methyl]-15-oxatetracyclo [6.6.1.0^2,^7.0^9,1^4]-pentadeca-2,4,6,9,11,13-hexaene-4-carboxamide] | 120 nM |
| O=C(N[C@H]1CCNC1)c1ccc2c(c1)[C@@H]1O[C@H]2c2ccc(-c3ccc(F)cc3F)cc21 (single isomer, unassigned) [Example 325] | 42700 nM |
| CCc1cc(N)nc(C)c1CNC(=O)c1ccc2c(c1)C1OC2c2ccc(-c3ccc(F)cc3F)cc21 (racemic) [Example 135, (±)-N-[(6-amino-4-ethyl-2-methylpyridin-3-yl)methyl]-12-(2,4-difluorophenyl)-15-oxatetracyclo[6.6.1.0^2,^7.0^9,1^4] pentadeca-2,4,6,9,11,13-hexaene-4-carboxamide] | 19.5 nM |
| Cc1ccc(C#N)c(-c2ccc3c(c2)C2OC3c3ccc(C(=O)NCc4c(C)cc(N)nc4C)cc32)c1 (racemic) [Example 156, (±)-N-[(6-amino-2,4-dimethylpyridin-3-yl)-methyl]-12-(2-cyano-5-methylphenyl)-15-oxatetracyclo[6.6.1.0^2,^7.0^9,1^4] pentadeca-2,4,6,9,11,13-hexaene-4-carboxamide] | 93.3 nM |
| Cc1ccc(C(=O)c2ccc3c(c2)[C@H]2O[C@@H]3c3ccc(C(=O)NCc4c(C)cc(N)nc4C)cc32)o1 (single isomer, unassigned) [Example 279] | 22.9 nM |
| Cc1cc(N)nc(C)c1CNC(=O)c1ccc2c(c1)C1OC2c2cc3c(O)nnc(O)c3cc21 (racemic) [Example 320, (±)-N-[(6-amino-2,4-dimethyl-pyridin-3-yl)methyl]-5,8-dihydroxy-19-oxa-6,7-diazapentacyclo [10.6.1.0^2,^11.0^4,^9.0^13,1^8] nonadeca-2(11),3,5,7,9,13,15,17-octaene-15-carboxamide] | 10200 nM |
| Cc1cc(N)nc(C)c1CNC(=O)c1ccc2c(c1)[C@@H]1O[C@H]2c2ccc(Cc3ccccc3)cc21 (single isomer, unassigned) [Example 254] | 19.1 nM |
| Cc1cc(N)nc(C)c1CNC(=O)c1ccc2c(c1)[C@@H]1O[C@H]2c2ccc(-c3cccc[n+]3[O-])cc21 (single isomer, unassigned) [Example 195] | 1050 nM |
| Cc1cc(N)nc(C)c1CNC(=O)c1ccc2c(c1)[C@@H]1O[C@H]2c2ccc(C(=O)N3CC4CCC(C3)O4)cc21 (single isomer, unassigned) [Example 193] | 1580 nM |
| Nc1n[nH]c2cc(CNC(=O)c3ccc4c(c3)[C@@H]3O[C@H]4c4ccc(-c5ccc(F)cc5F)cc43)ccc12 (single isomer, unassigned) [Example 207] | 4900 nM |
| CC12OC(C)(c3cc(C(=O)NCc4ccc(C(=N)N)cc4)ccc31)c1cc(-c3ccc(F)cc3)ccc12 (racemic) [Example 344, N-[(4-carbamimidoylphenyl)methyl]-12-(4-fluorophenyl)-1,8-dimethyl-15-oxatetracyclo [6.6.1.0^2,^7.0^9,1^4]pentadeca-2,4,6,9,11,13-hexaene-4-carboxamide] | 427 nM |
| COC(=O)c1cc2c(cc1C(=O)OC)C1OC2c2ccc(C(=O)NCc3c(C)cc(N)nc3C)cc21 (racemic) [Example 319, (±)-4,5-dimethyl 11-{[(6-amino-2,4-dimethyl-pyridin-3-yl)methyl]carbamoyl}-15-oxatetracyclo[6.6.1.0^2,^7.0^9,1^4] pentadeca-2(7),3,5,9,11,13-hexaene-4,5-dicarboxylate] | 2450 nM |
| Cc1ccncc1-c1ccc2c(c1)[C@H]1O[C@@H]2c2ccc(C(=O)NCc3c(C)cc(N)nc3C)cc21 (single isomer, unassigned) [Example 215] | 79.4 nM |
| N=C(N)c1ccc(CNC(=O)c2ccc3c(c2)[C@@H]2O[C@H]3c3ccc(N4CCS(=O)(=O)CC4)cc32)cc1 (single isomer, unassigned) [Example 337] | 26.9 nM |
| N=C(N)c1ccc(CNC(=O)c2ccc3c(c2)C2OC3c3cc(C4CC4)c(C4CC4)cc32)cc1 (racemic) [Example 316, (±)-N-[(4-carbamimidoyl-phenyl)methyl]-11,12-dicyclopropyl-15-oxatetracyclo [6.6.1.0^2,^7.0^9,1^4]-pentadeca-2,4,6,9,11,13-hexaene-4-carboxamide] | 4.9 nM |
| Cc1cc(N)nc(C)c1CNC(=O)c1ccc2c(c1)[C@@H]1O[C@H]2c2ccc(-c3ccc(F)c(F)c3F)cc21 (single isomer, unassigned) [Example 138] | 24 nM |
